PubChem BioAssay (NCI)
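Grown in 96-well plates, cells were treated for 48 hours with each compound at five concentrations. Insufficient inhibition: endpoint recorded as highest concentration tested. GI50: concentration for 50% inhibition of growth. TGI: concentration producing complete growth inhibition.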

What was measured:
Experiment in all cases: DTP human tumour cell line panel, 48 h; in the data active = GI50 below about 0.43 µM; inactive = the rest
SF-268 CNS = system: SF-268 CNS
SNB-19 CNS = system: SNB-19 CNS
NCI-H226 lung = system: NCI-H226 lung
OVCAR-3 ovarian = system: OVCAR-3 ovarian
NCI-H522 lung = system: NCI-H522 lung
UACC-257 melanoma = system: UACC-257 melanoma
SR leukemia = system: SR leukemia
MDA-MB-435 = system: MDA-MB-435
SK-OV-3 ovarian = system: SK-OV-3 ovarian
A549 NSCLC = system: A549 NSCLC
TK-10 renal = system: TK-10 renal
KM12 colon = system: KM12 colon
OVCAR-5 ovarian = system: OVCAR-5 ovarian
SF-295 CNS = system: SF-295 CNS
NCI-H460 lung = system: NCI-H460 lung
MDA-MB-231 breast = system: MDA-MB-231 breast
SK-MEL-2 melanoma = system: SK-MEL-2 melanoma
T-47D breast = system: T-47D breast
K-562 leukemia = system: K-562 leukemia
DU-145 prostate = system: DU-145 prostate
HOP-62 NSCLC = system: HOP-62 NSCLC
HT29 colon = system: HT29 colon
OVCAR-8 ovarian = system: OVCAR-8 ovarian
COLO 205 colon = system: COLO 205 colon
EKVX NSCLC = system: EKVX NSCLC
HS 578T breast = system: HS 578T breast

O=c1oc2c(cc1-c1ccccc1)C(O)Oc1ccccc1-2 (configuration not stated)
30.6 µM: TGI (SK-MEL-2 melanoma)
78.8 µM: TGI (HOP-62 NSCLC)
75.7 µM: TGI (SK-OV-3 ovarian)
inactive: GI50 (SF-268 CNS) 16.3 µM | GI50 (SNB-19 CNS) 6.38 µM | GI50 (NCI-H226 lung) 28.8 µM | GI50 (OVCAR-3 ovarian) 2.6 µM | GI50 (NCI-H522 lung) 4.97 µM | GI50 (UACC-257 melanoma) 12.4 µM | GI50 (SR leukemia) 2.89 µM | GI50 (MDA-MB-435) 1.62 µM | GI50 (SK-OV-3 ovarian) 10.2 µM | GI50 (A549 NSCLC) 7.84 µM | GI50 (TK-10 renal) 6.46 µM | GI50 (KM12 colon) 3.04 µM | GI50 (OVCAR-5 ovarian) 31.3 µM | GI50 (SF-295 CNS) 8.79 µM | GI50 (NCI-H460 lung) 4.12 µM | GI50 (MDA-MB-231 breast) 15.5 µM | GI50 (SK-MEL-2 melanoma) 5.81 µM | GI50 (T-47D breast) 4.41 µM | GI50 (K-562 leukemia) 4.27 µM | GI50 (DU-145 prostate) 18.9 µM | GI50 (HOP-62 NSCLC) 10.3 µM | GI50 (HT29 colon) 3.21 µM | GI50 (OVCAR-8 ovarian) 6.89 µM | GI50 (COLO 205 colon) 7.72 µM | GI50 (EKVX NSCLC) 28.1 µM | GI50 (HS 578T breast) 13.4 µM
22.3 µM: TGI (T-47D breast)
13.7 µM: TGI (SR leukemia)
> 100 µM: TGI (SNB-19 CNS) | TGI (NCI-H226 lung) | TGI (OVCAR-3 ovarian) | TGI (MDA-MB-435) | TGI (TK-10 renal) | TGI (OVCAR-5 ovarian) | TGI (NCI-H460 lung) | TGI (MDA-MB-231 breast) | TGI (K-562 leukemia) | TGI (DU-145 prostate) | TGI (HT29 colon) | TGI (OVCAR-8 ovarian) | TGI (EKVX NSCLC) | TGI (HS 578T breast)
25.9 µM: TGI (COLO 205 colon)
83.6 µM: TGI (SF-268 CNS)
21.2 µM: TGI (NCI-H522 lung)
97.1 µM: TGI (SF-295 CNS)
23.4 µM: TGI (KM12 colon)
35.4 µM: TGI (UACC-257 melanoma)
95.8 µM: TGI (A549 NSCLC)
